Earlier results as cited in patent US20040116402A1, “Superoxide dismutase mimics for the treatment of ocular disorders and diseases” (priority 2002, published 2004).

How the values were obtained:
[1] = test system: autoimmune diabetes by a diabetogenic T-cell clone; settings: in a cloned cell (diabetogenic T-cell clone adoptive transfer)

Q: With [Cl-].[Cl-].[Mn+2].c1cc2nc(c1)CN[C@@H]1CCCC[C@H]1NCCN[C@@H]1CCCC[C@H]1NC2 [M40403] as the compound, how does the “vascular and neural dysfunction” value (diabetic rats) read?
A: prevented vascular and neural dysfunction

Q: With CC1(C)CC(O)CC(C)(C)N1[O] [4-hydroxy-2,2,6,6-tetramethylpiperidine-1-oxyl] as the compound, how does the light-induced retinal damage (albino rats) read?
A: inhibited light-induced retinal damage

Q: For CCN1C=CC=C/C1=C1/C2=NC(=C(c3cccc[n+]3CC)C3=NC(=C(c4cccc[n+]4CC)c4ccc([n-]4)C(c4cccc[n+]4CC)=C4C=CC1=N4)C=C3)C=C2.[Cl-].[Cl-].[Cl-].[Cl-].[Cl-].[Mn+3] [AEOL10113], which onset of diabetes [1] is on record?
A: delay the onset of diabetes
